These are literature values, as cited in US9675585B1, “Extended release pharmaceutical formulations” (Ezra Pharma, priority 2016, dated 2017).

A word on the Tmax: it is the time at which the peak concentration occurs. For the compound `CCCCC(=O)N(Cc1ccc(-c2ccccc2-c2nnn[nH]2)cc1)[C@H](C(=O)O)C(C)C` [valsartan], under “following Cmax”, the “time after which plasma concentration reaches very low level” value was 10 to 12 h. Also, the Tmax (oral administration) is 2 to 4 h.
